According to ChEMBL document CHEMBL5380795, “Design, Synthesis, and Bioactivity Investigation of Cyclic Lipopeptide Antibiotics Containing Eight to Nine Amino Acids” (J Med Chem, 2023):
Values after ≈ are worked out from the molar mass of the structure shown. Active and inactive are the calls of the source. No cut-off for these calls is given here.

Experiments:
[1] = system: Staphylococcus epidermidis; assay: Antibacterial activity against methicillin resistant Staphylococcus epidermidis clinical isolate 19-6 assessed as inhibition of bacterial growth incubated for 18 to 24 hrs by broth microdilution method; format: functional; conditions: time 18-24 hrs
Pseudomonas aeruginosa [2] = assay: Antibacterial activity against Pseudomonas aeruginosa clinical isolate 19-1 assessed as inhibition of bacterial growth incubated for 18 to 24 hrs by broth microdilution method; format: functional; conditions: time 18-24 hrs
Pseudomonas aeruginosa [3] = assay: Antibacterial activity against carbapenem resistant Pseudomonas aeruginosa clinical isolate 19-3 assessed as inhibition of bacterial growth incubated for 18 to 24 hrs by broth microdilution method; format: functional; conditions: time 18-24 hrs
Acinetobacter baumannii = assay: Antibacterial activity against carbapenem resistant Acinetobacter baumannii clinical isolate 19-8 assessed as inhibition of bacterial growth incubated for 18 to 24 hrs by broth microdilution method; format: functional; conditions: time 18-24 hrs
Escherichia coli [4] = assay: Bactericidal activity against Escherichia coli ATCC BAA-2523 assessed as reduction in bacterial count at 0.5 to 2 times MIC measured after 2 to 24 hrs by time-kill assay; format: functional, organism-based; conditions: time 2-24 hrs
[5] = Cytotoxicity against human HK-2 cells assessed as inhibition of cell growth incubated for 72 hrs by CCK-8 assay; format: toxicity, cell-based
[6] = Selectivity index, ratio of IC50 for cytotoxicity against human HK-2 cells to MIC for antibacterial activity against Escherichia coli ATCC BAA-2523; format: toxicity, cell-based
[7] = Clearance in overnight fasted Sprague-Dawley rat at 4 mg/kg, ip measured for 24 hrs by LC-MS/MS analysis; format: ADME, organism-based; conditions: in vivo
Lipopolysaccharide (LPS) = assay: Binding affinity to LIP-1 sensor chip immobilized Escherichia coli LPS assessed as increase in resonance units measured for 600 secs by SPR analysis; conditions: dose 0.125-4 µM, time 600.0 sec
Escherichia coli [8] = assay: Potentiation of rifampicin induced antibacterial activity in Escherichia coli ATCC 25922 assessed as rifampicin MIC at 0.004 ug/ml incubated for 18 to 24 hrs by broth microdilution method (reference value: 2 ug/ml); format: functional; conditions: dose 0.004 µg/ml, time 18-24 hrs
Escherichia coli [9] = assay: Potentiation of rifampicin induced antibacterial activity in Escherichia coli ATCC 25922 assessed as rifampicin MIC at 0.008 ug/ml incubated for 18 to 24 hrs by broth microdilution method (reference value: 2 ug/ml); format: functional; conditions: dose 0.008 µg/ml, time 18-24 hrs
Escherichia coli [10] = assay: Potentiation of rifampicin induced antibacterial activity in Escherichia coli ATCC 25922 assessed as rifampicin MIC at 0.25 ug/ml incubated for 18 to 24 hrs by broth microdilution method (reference value: 2 ug/ml); format: functional; conditions: dose 0.25 µg/ml, time 18-24 hrs
Escherichia coli [11] = assay: Potentiation of rifampicin induced antibacterial activity in Escherichia coli ATCC 25922 assessed as rifampicin MIC at 4 ug/ml incubated for 18 to 24 hrs by broth microdilution method (reference value: 2 ug/ml); format: functional; conditions: dose 4 µg/ml, time 18-24 hrs

CCCCCCC[C@@H](O)CC(=O)N[C@H](CCN)C(=O)N[C@H]1CCNC(=O)[C@H]([C@@H](C)O)NC(=O)[C@H](CCN)NC(=O)[C@H](CCN)NC(=O)[C@H]([C@@H](C)O)NC(=O)[C@@H](Cc2ccccc2)NC(=O)[C@H](CCN)NC1=O
MIC [1]: > 64 µg/mL
MIC (Pseudomonas aeruginosa [2]): 0.5 µg/mL (≈ 0.49 µM)
MIC (Pseudomonas aeruginosa [3]): 0.5 µg/mL (≈ 0.49 µM)
MIC (Acinetobacter baumannii): 32 µg/mL (≈ 31.4 µM)
Activity (Escherichia coli [4]): inactive
IC50 at 72 h [5]: 414 µg/mL (≈ 406 µM)
selectivity ratio [6]: 828
CL/F [7]: 3.8 mL/min/kg
Activity (Lipopolysaccharide (LPS)): Dose-Dependent Effect
MIC (Escherichia coli [8]): 0.5 µg/mL
MIC (Escherichia coli [9]): 0.5 µg/mL
MIC (Escherichia coli [10]): ≤ 0.06 µg/mL
MIC (Escherichia coli [11]): ≤ 0.06 µg/mL
